The IC50 is the concentration that inhibits the measured activity by half. Broadly, the IC90 is the point of the concentration-response curve where the effect stands at 90%.

The source of these data is ChEMBL document CHEMBL4483862, “Open-source discovery of chemical leads for next-generation chemoprotective antimalarials” (2018).

The assay deals with Plasmodium berghei. The assay is described as follows: Luciferase/luciferin-expressing antifolate-resistant parasites were used to infect a culture of HepG2 cells that were pre-incubated with compounds. Infected hepatocytes emit light due to the luciferase reaction. Assay results are presented as the percent inhibition of light emission compared to control. […]. The note with it: sporozoite; for IC90: read-out: LUCIFERASE INFECTION ASSAY - IC90. The format is functional.

[1] abbreviates: read-out: LUCIFERASE INFECTION ASSAY - IC50.

`O=C(Nc1nc(-c2c[nH]c3ccccc23)cs1)c1coc(Br)c1`: the IC90 is greater than 10 µM. Further, under setting [1], the IC50 is greater than 10 µM.

For the compound `O=C(Nc1nc2c(s1)CCCC2)c1cc(F)c(F)c(F)c1F`, the IC90 came to 0.624 µM. Also, the IC50 under setting [1] was found to be 0.081 µM.

Turning to `O=S(=O)(/C=C/c1ccccc1)N1CCSc2ccc(Cl)cc21`, the IC90 was 4.27 µM. The IC50 (HEPG2TOX_HILL_SLOPE 12.6, HEPG2TOX_R_SQUARED 0.499, PBLUC_HILL_SLOPE 12.6, PBLUC_R_SQUARED 0.783, read-out: LUCIFERASE INFECTION ASSAY - IC50) was found to be 3.58 µM.

In the case of `C(=C\c1cn2c(-c3cccnc3)cnc2cn1)/c1ccccc1`, the IC90 is greater than 11.1 µM. Besides, under “HEPG2TOX_HILL_SLOPE 0.303, HEPG2TOX_R_SQUARED 0.424, PBLUC_HILL_SLOPE 9.4, PBLUC_R_SQUARED 0.254, read-out: LUCIFERASE INFECTION ASSAY - IC50”, the IC50 is 8.93 µM.

Regarding `Cc1ccc(S(=O)(=O)n2c3ccc(Cl)cc3c3nc(C)sc32)cc1`, the IC90 is greater than 8.76 µM. In addition, for the setting “FFLUC_HILL_SLOPE 13.1, FFLUC_R_SQUARED 0.689, read-out: LUCIFERASE INFECTION ASSAY - IC50”, the IC50 was greater than 8.76 µM.

`Cc1nc2ccccc2c(=O)n1/N=C/c1cn(-c2ccccc2)nc1-c1cccs1`: the IC90 was greater than 10 µM. Also, the IC50 (PBLUC_HILL_SLOPE 10.9, PBLUC_R_SQUARED 0.148, read-out: LUCIFERASE INFECTION ASSAY - IC50) stood at 8.36 µM.

`N#CC(C#N)=C1C=C(c2ccc(O)cc2)Oc2ccccc21`: the IC90 was greater than 10 µM. For the same compound, under “FFLUC_HILL_SLOPE 1.23, FFLUC_R_SQUARED 0.408, read-out: LUCIFERASE INFECTION ASSAY - IC50”, the IC50 was greater than 10 µM.

For `CC(C)CCN(C(=O)CN1c2ccccc2CC1C)c1c(N)n(Cc2ccccc2)c(=O)[nH]c1=O` (centres undefined), the IC90 is greater than 10 µM. The IC50 under setting [1] is greater than 10 µM.

For the compound `Cc1c(C)n(CCCN(C)C)c2ncn3nc(COc4ccccc4)nc3c12`, the IC90 was greater than 8.72 µM. Further, the IC50 (PBLUC_HILL_SLOPE 0.81, PBLUC_R_SQUARED 0.755, read-out: LUCIFERASE INFECTION ASSAY - IC50) amounted to 0.821 µM.

Regarding `Clc1ccc(-c2cn3c(-c4ccccc4)cnc3cn2)c(Cl)c1`, the IC90 amounted to 3.69 µM. For the same compound, for the setting “HEPG2TOX_HILL_SLOPE 1.88, HEPG2TOX_R_SQUARED 0.996, PBLUC_HILL_SLOPE 1.95, PBLUC_R_SQUARED 0.542, read-out: LUCIFERASE INFECTION ASSAY - IC50”, the IC50 was determined as 1.19 µM.

With `COc1ccc([N+]2=C3CCCCCN3CC2(O)c2ccc(-c3ccccc3)cc2)cc1` (centres undefined), the IC90 is greater than 10 µM. Under “HEPG2TOX_HILL_SLOPE 6.91, HEPG2TOX_R_SQUARED 0.498, PBLUC_HILL_SLOPE 1.91, PBLUC_R_SQUARED 0.528, read-out: LUCIFERASE INFECTION ASSAY - IC50”, the IC50 stood at 3.24 µM.

`CNS(=O)(=O)Cc1ccccc1CNCc1cccc(Oc2ccccc2)c1`: the IC90 was greater than 10 µM. Moreover, under setting [1], the IC50 is greater than 10 µM.

Regarding `COc1ccc(-n2cc(-c3ccccc3)c3c(NCc4cccnc4)ncnc32)cc1`, the 90% effect concentration (IC90) is greater than 10 µM. For the same compound, under setting [1], the IC50 is greater than 10 µM.

Consider `COc1cc(NC(=O)C(C)(C)n2cc(-c3cccnc3)cn2)cc(OC)c1`, for which the 90% effect concentration (IC90) is greater than 10 µM. Under setting [1], the IC50 is greater than 10 µM.

In the case of `O=C1C(=C2SCCCS2)CC/C1=C\c1ccccc1`, the IC90 stood at 5.73 µM. Further, the IC50 (FFLUC_HILL_SLOPE 1.05, FFLUC_R_SQUARED 0.81, PBLUC_HILL_SLOPE 0.851, PBLUC_R_SQUARED 0.668, read-out: LUCIFERASE INFECTION ASSAY - IC50) worked out at 0.433 µM.

As to `Cc1cc(-c2ccccc2)nc2c1/C(=N\O)CC(C)(C)C2`, the IC90 is greater than 11.8 µM. The IC50 (HEPG2TOX_HILL_SLOPE 8.55, HEPG2TOX_R_SQUARED 0.808, PBLUC_HILL_SLOPE 3.52, PBLUC_R_SQUARED 0.12, read-out: LUCIFERASE INFECTION ASSAY - IC50) stood at 8.87 µM.

Consider `O=C(CN1CCN(CCOc2ccccc2)CC1)Nc1cc(C(F)(F)F)ccc1Cl`, for which the IC90 was greater than 10 µM. The IC50 (PBLUC_HILL_SLOPE 3.77, PBLUC_R_SQUARED 0.518, read-out: LUCIFERASE INFECTION ASSAY - IC50) stood at 7.08 µM.

Consider `O=c1c2ccccc2[nH]c2ccccc12` [ACRIDONE], for which the IC90 was determined as 5.03 µM. Moreover, the 50% inhibitory concentration (IC50) (PBLUC_HILL_SLOPE 1.89, PBLUC_R_SQUARED 0.789, read-out: LUCIFERASE INFECTION ASSAY - IC50) came out at 1.57 µM.

`Cc1cc(C)c(C)c(S(=O)(=O)N2CCC(C(=O)Nc3cc(S(=O)(=O)Nc4ccc(Cl)cc4)ccc3N3CCOCC3)CC2)c1C`: the IC90 worked out at 3.69 µM. In addition, the IC50 (FFLUC_HILL_SLOPE 3.74, FFLUC_R_SQUARED 0.802, PBLUC_HILL_SLOPE 15.7, PBLUC_R_SQUARED 0.403, read-out: LUCIFERASE INFECTION ASSAY - IC50) came out at 3.21 µM.

On to `CCN(CC)CCNC(=O)c1ccc(Nc2ccn3nc(-c4ccc(Cl)cc4)cc3n2)cc1`, for which the IC90 is greater than 7.13 µM. Moreover, under setting [1], the IC50 was greater than 7.13 µM.

Consider `O=C(COC(=O)Cc1ccc(Cl)c(Cl)c1)Nc1ccc(OCc2ccccc2)cc1`, for which the IC90 was greater than 10 µM. For the same compound, the 50% inhibitory concentration (IC50) under setting [1] is greater than 10 µM.

For `COCCNc1nc(Nc2ccc(C)cc2C)c2sccc2n1`, the 90% effect concentration (IC90) was greater than 10 µM. For the same compound, the IC50 (HEPG2TOX_HILL_SLOPE 2.54, HEPG2TOX_R_SQUARED 0.987, PBLUC_HILL_SLOPE 3.36, PBLUC_R_SQUARED 0.0445, read-out: LUCIFERASE INFECTION ASSAY - IC50) is greater than 10 µM.

Consider `CC(C)(C)c1ccc(OS(=O)(=O)c2ccc(-c3csnn3)s2)cc1`, for which the IC90 is greater than 8.67 µM. The IC50 (HEPG2TOX_HILL_SLOPE 1.63, HEPG2TOX_R_SQUARED 0.666, PBLUC_HILL_SLOPE 2.62, PBLUC_R_SQUARED 0.635, read-out: LUCIFERASE INFECTION ASSAY - IC50) was determined as 5.74 µM.

As to `O=C1/C(=C/Nc2ccccc2O)c2ccccc2C(=O)N1c1ccccc1Cl`, the 90% effect concentration (IC90) is greater than 10 µM. Also, the IC50 under setting [1] was greater than 10 µM.

With `CNc1nc(-c2[nH]c(C)c(C(=O)OC)c2C)cs1`, the concentration for an effect of 90% (IC90) came out at 2.11 µM. Further, the IC50 (FFLUC_HILL_SLOPE 0.348, FFLUC_R_SQUARED 0.146, HEPG2TOX_HILL_SLOPE 0.722, HEPG2TOX_R_SQUARED 0.883, PBLUC_HILL_SLOPE 1.52, PBLUC_R_SQUARED 0.828, read-out: LUCIFERASE INFECTION ASSAY - IC50) came out at 0.496 µM.

`Cc1ccc(NC(=O)COc2ccc3c(c2C)OC(C)(C)CC3)cc1`: the IC90 was greater than 9.72 µM. Besides, for the setting “PBLUC_HILL_SLOPE 1.51, PBLUC_R_SQUARED 0.601, read-out: LUCIFERASE INFECTION ASSAY - IC50”, the IC50 was 3.8 µM.

Consider `CCCCCN1C(=O)/C(=N\n2c(-c3ccc(Cl)c(Cl)c3)cs/c2=N\c2cccc(C)c2C)c2ccccc21`, for which the IC90 was greater than 10 µM. Further, under “FFLUC_HILL_SLOPE 0.963, FFLUC_R_SQUARED 0.82, HEPG2TOX_HILL_SLOPE 0.0725, HEPG2TOX_R_SQUARED 0.0443, PBLUC_HILL_SLOPE 3.87, PBLUC_R_SQUARED 0.467, read-out: LUCIFERASE INFECTION ASSAY - IC50”, the IC50 amounted to 6.02 µM.

As to `COc1cccc(-c2ccc3ncc(-c4ccc5c(c4)OCO5)n3n2)c1`, the IC90 came out at 9 µM. Moreover, the IC50 (HEPG2TOX_HILL_SLOPE 2.64, HEPG2TOX_R_SQUARED 0.763, PBLUC_HILL_SLOPE 3.7, PBLUC_R_SQUARED 0.498, read-out: LUCIFERASE INFECTION ASSAY - IC50) stood at 4.97 µM.

As for `O=C(c1ccc2cc[nH]c2c1)N1CCN(C/C=C/c2ccccc2)CC1`, the IC90 was found to be 9.08 µM. Also, the IC50 under setting [1] worked out at 7.41 µM.

As for `CC(C)C(=O)N1CCN(c2nc(CSc3ccccc3)nc3sc4c(c23)CCCC4)CC1`, the IC90 is greater than 10 µM. Also, the IC50 (PBLUC_HILL_SLOPE 15.3, PBLUC_R_SQUARED 0.212, read-out: LUCIFERASE INFECTION ASSAY - IC50) amounted to 8.67 µM.

`O=C1c2ccccc2O[C@@H](c2ccc(Cl)cc2)[C@@H]1O`: the IC90 is greater than 12 µM. The concentration for half-maximal inhibition (IC50) (PBLUC_HILL_SLOPE 64.7, PBLUC_R_SQUARED 0.241, read-out: LUCIFERASE INFECTION ASSAY - IC50) came out at 12 µM.

As for `CCn1c(-c2ccccc2)c(C(=O)COC(=O)/C=C/c2ccco2)c2ccccc21`, the IC90 is greater than 10 µM. Besides, under “HEPG2TOX_HILL_SLOPE 1.75, HEPG2TOX_R_SQUARED 0.877, PBLUC_HILL_SLOPE 15.9, PBLUC_R_SQUARED 0.384, read-out: LUCIFERASE INFECTION ASSAY - IC50”, the IC50 was found to be 9.6 µM.

Take `Cc1cc(C2=NNC(=CN3CCc4sccc4C3c3cccs3)O2)c(C)o1` (centres undefined): the IC90 was greater than 10 µM. Besides, the IC50 (FFLUC_HILL_SLOPE 3.77, FFLUC_R_SQUARED 0.256, read-out: LUCIFERASE INFECTION ASSAY - IC50) was greater than 10 µM.

For `O=C(Nc1ncc(Cc2cccc(Cl)c2Cl)s1)c1ccncc1`, the IC90 is 7.55 µM. For the same compound, the IC50 under setting [1] was determined as 3.27 µM.

As for `Cc1sc2ncnc(N3CCC(C(=O)Nc4nnc(-c5cccc([N+](=O)[O-])c5)o4)CC3)c2c1C`, the IC90 is greater than 10 µM. For the same compound, the IC50 under setting [1] is greater than 10 µM.

Take `COc1ccc2c(c1)/C(=N/NC(=O)c1ccc(CSc3ccc(Cl)cc3)cc1)C(=O)N2`: the IC90 was greater than 10 µM. The IC50 (FFLUC_HILL_SLOPE 11.4, FFLUC_R_SQUARED 0.124, PBLUC_HILL_SLOPE 3.43, PBLUC_R_SQUARED 0.087, read-out: LUCIFERASE INFECTION ASSAY - IC50) stood at 6.03 µM.

Regarding `CN(C)c1ccc(C(c2ccc(OC(F)F)cc2)c2ccc(N(C)C)cc2)cc1`, the 90% effect concentration (IC90) amounted to 6.27 µM. Besides, the IC50 (HEPG2TOX_HILL_SLOPE 3.6, HEPG2TOX_R_SQUARED 0.971, PBLUC_HILL_SLOPE 3.21, PBLUC_R_SQUARED 0.781, read-out: LUCIFERASE INFECTION ASSAY - IC50) was found to be 3.16 µM.
